How the values were obtained:
SIRT1 = SIRT1 expression in HUVECs by western blot; type: cell-based, human
Procedure: To determine the increase in SIRT1 expression by the compound of formula (1a-1) prepared in Example 1 above in human umbilical vein endothelial cells (HUVECs), HUVECs were seeded at 5×10^5/4 ml in a 60 mm cell culture dish using ECBM2 medium (Promocell) and stabilized for 12 hours in an incubator maintained at 37 °C and 5% CO2, respectively.
The cells were then treated with 10 nM, 100 nM and 1000 nM of the compound of formula (1a-1) prepared in Example 1 above, respectively, and incubated for another 24 hours, and then SIRT1 expression was determined by western blot.

[1] = test system: APP/PS/Tau transgenic mice; experiment: Intestinal length in an AD-induced animal model (APP/PS/Tau transgenic mice); type: in vivo, mouse; conditions: 1 mg/kg i.p. once every 3 days for 2 weeks, FIG. 2
Procedure: In neurodegenerative diseases (AD and PD), the length of the intestine tends to decrease as the disease progresses, so we looked for changes in intestinal length in an AD-induced animal model.
APP/PS/Tau transgenic mice were used as an AD-induced animal model. The compound of formula (1a-1) was administered intraperitoneally once every 3 days at a concentration of 1 mg/kg to 12-week-old transgenic mice for 2 weeks, and the changes in intestinal length of the mice were measured after 1 and 4 weeks.

[2] = test system: tyrosine hydroxylase (TH); experiment: Differentiation of pluripotent stem cells into dopaminergic neurons: tyrosine hydroxylase expression; type: cell-based
Procedure: Pluripotent stem cells were seeded in Aggre Well plates (stemcell) at 5,000 cells/microwell and cultured for 5 days in E6 medium (GIBCO) to induce embryonic body (EB) formation. For neural rosette formation, EBs were seeded into 35 mm dishes in groups of 30 and cultured for 10 days in N2bF medium. The 35 mm dishes were used after being coated with 15 μg/ml of poly-L-ornithine (sigma) and 1 μg/ml of fibronectin (sigma). The N2Bf medium composition was DMEM/F12 (GIBCO), N2 supplement (stemcell) 1×, 10% NEAA (GIBCO), 55 µM beta-Mercaptoethanol (GIBCO), bFGF (peprotech) 20 ng/ml. For the formation of spherical neural masses (SNMs), rosette masses were sliced and cultured in petri dishes with N2bF medium. SNMs were no larger than 500 UM in size and were sliced and cultured for 3 to 4 passages. After subculture of SNM, the clumps were broken into small pieces using a tungsten mesh (Nilaco) for the neural progenitor cell (NPC) culture step, and then attached to a PLO/FN-coated dish and cultured in N2bF medium. To differentiate NPCs into dopaminergic neurons, the medium was replaced with an ITS-B27 medium after 2 days of NPC culture. The ITS-B27 medium composition was DMEM/F12 (GIBCO), D-(+)-glucose (sigma) 1.5 mg/ml, insulin (wako) 5 μg/ml, transferrin (wako) 50 μg/ml, selenite (sigma) 30 nM, GlutaMAX (GIBCO) 2.5%, and B27 (GIBCO) 1×. After 4 days of NPC culture, 200 ng/ml of Sonic Hedgehog and 100 ng/ml of FGF8 (peprotech) were added to the ITS-B27 medium. After 6 days of NPC culture, 200 ng/ml of Sonic Hedgehog, 20 ng/ml of GDNF, 20 ng/ml of BDNF (peprotech), 200 µM of ascorbic acid, and 500 μM of cAMP (sigma) were added to the ITS-B27 medium and cultured for approximately 5 weeks. The compound of formula (1a-1) was treated starting from the stage 2 days after NPC culture. […]
(§1) The effect of the compound of formula (1a-1) on differentiation into neurons was evaluated by comparing the expression of tyrosine hydroxylase (TH) and dopamine transporter (DAT) depending on the presence or absence of treatment with the compound of formula (1a-1).

[3] = test system: dopamine transporter (DAT); experiment: Differentiation of pluripotent stem cells into dopaminergic neurons: dopamine transporter; type: cell-based; conditions: 5-week differentiation sample, FIG. 5B
Procedure: Pluripotent stem cells were seeded in Aggre Well plates (stemcell) at 5,000 cells/microwell and cultured for 5 days in E6 medium (GIBCO) to induce embryonic body (EB) formation. For neural rosette formation, EBs were seeded into 35 mm dishes in groups of 30 and cultured for 10 days in N2bF medium. The 35 mm dishes were used after being coated with 15 μg/ml of poly-L-ornithine (sigma) and 1 μg/ml of fibronectin (sigma). The N2Bf medium composition was DMEM/F12 (GIBCO), N2 supplement (stemcell) 1×, 10% NEAA (GIBCO), 55 µM beta-Mercaptoethanol (GIBCO), bFGF (peprotech) 20 ng/ml. For the formation of spherical neural masses (SNMs), rosette masses were sliced and cultured in petri dishes with N2bF medium. SNMs were no larger than 500 UM in size and were sliced and cultured for 3 to 4 passages. After subculture of SNM, the clumps were broken into small pieces using a tungsten mesh (Nilaco) for the neural progenitor cell (NPC) culture step, and then attached to a PLO/FN-coated dish and cultured in N2bF medium. […]
as §1

C57BL/6 mice = experiment: Survival in sepsis induced by cecal ligation and puncture (CLP); type: in vivo, mouse; conditions: 100 ng/mouse (5 μg/kg) i.v. at 6 and 16 hours after CLP; FIG. 7
Procedure: C57BL/6 mice aged 7-8 weeks were purchased from Jabio (Suwon, Gyeonggi-do) and sepsis was induced by cecal ligation and puncture (CLP).
Specifically, after anesthesia using 150 mg/kg of ketamine and 17.5 mg/kg of rompun, an abdominal incision of 1-2 cm was made to expose the cecum to induce sepsis. The cecum was ligated with 6-0 silk sutures at the distal end of the ileocecal valve, and a puncture was made with an 18-gauge needle. The perforated cecum was gently squeezed to push out 1-2 cm of feces, and the cecum was then retracted back into the abdominal cavity. The abdomen was then closed and pre-warmed normal saline (2.5 mL/100 g body weight) was injected into the mouse abdominal cavity immediately after the procedure. 6 and 16 hours after CLP treatment, the compound of formula (1a-1) was dissolved in phosphate buffered saline (PBS) and injected intravenously at 100 ng/mouse (5 μg/kg), and survival was examined for 10 days. […] In addition, as a drug-negative control, survival was examined in mice that received only PBS after CLP treatment.
For comparison, we also examined the survival of a control group treated with fingolimod (FTY720), a known S1P modulator, instead of the compound of formula (1a-1) under the same conditions.

IL-6 = IL-6 in serum after CLP treatment by ELISA; type: in vivo, mouse; conditions: serum at 18 hours, treated at 6 and 16 hours after CLP; FIG. 10
Procedure: After CLP treatment, the inflammatory cytokines TNF-α and IL-6 were analyzed by ELISA.
Specifically, after treating the compound of formula (1a-1) at 6 and 16 hours after CLP treatment, mouse blood was collected at 18 hours and allowed to stand at room temperature for 1 hour, then centrifuged at 3000 rpm for 10 minutes to obtain serum to analyze the amount of TNF-α and IL-6.

For `CCCCCCCCCCCCCC[C@H]1OP(=O)(O)O[C@H]1[C@@H](N)CO.Cl` [formula (1a-1), (4S,5R)-4-((S)-1-amino-2-hydroxyethyl)-2-hydroxy-5-tetradecyl-1,3,2-dioxaphosphoran-2-oxide hydrochloride], the “concentration increasing SIRT1 expression relative to that of resveratrol” value (SIRT1; HUVEC EC50 about 10 nM vs known EC50 of resveratrol approximately […] μM) was “thousands of times lower than that of resveratrol”, the “increase in SIRT1 expression” value (SIRT1; HUVECs, 10 nM, 100 nM and 1000 nM, 24 hours, FIG. 1) was “increases the expression of SIRT1 even at a very low concentration of 10 nM” and the EC50 (SIRT1; Homo sapiens, HUVEC, HUVECs, 24 hours, western blot, read-out: concentration (EC50) that increased the expression of SIRT1 by 50%) was ~0.01 µM. For the same compound, the “intestinal length at 4 weeks (6W) vs 1 week (3W) after administration” value [1] was “the length of the intestine at 4 weeks is longer compared to the length of the intestine at 1 week”, the “intestinal length vs control group” value ([1]; untreated AD-induced mice as control) was “the intestinal length is increased” and the “TH expression (western blot)” value ([2]; 5-week differentiation sample, FIG. 5B) was “TH expression is increased”. For the same compound, the “expression of TH (cell fluorescence immunostaining)” value ([2]; FIG. 5A) was “the expression of TH increased”, the “time at which TH expression was elevated” value ([2]; FIG. 5A, TH expression otherwise increases after more than 5 weeks of differentiation) was ≤ 3 weeks and the “DAT glycosylation (western blot)” value [3] was “DAT glycosylation is increased”. For the same compound, the “deaths after 10 days” value (C57BL/6 mice) was “no deaths”, the “survival for 10 days” value (C57BL/6 mice) was “more than 80%” and the “amount of IL-6” value (IL-6) was “significantly decreased”.

— patent US20260365684A1, “PHYTOSPHINGOSINE-3,4-CYCLICPHOSPHATE COMPOUND AND PHARMACEUTICAL COMPOSITION COMPRISING THE SAME” (AXCESO BIOPHARMA CO., LTD., priority 2022, published 2026)
